Assay results: ChEMBL document CHEMBL2202958, “Development of potent macrocyclic inhibitors of genotype 3a HCV NS3/4A protease” (Bioorg Med Chem Lett, 2012)

Legend:
[1] = Drug level in Sprague-Dawley rat liver at 5 mg/kg, po after 4 hrs; type: ADME, organism-based; set-up: dose 5 mg/kg, route oral; conditions: read-out: Drug uptake
[2] = Inhibition of HCV3a NS3/4A protease; set-up: species or system Hepatitis C virus subtype 3a
Hepatitis C virus [3] = assay: Inhibition of HCV1b NS3/4A protease; set-up: species or system Hepatitis C virus subtype 1b
Hepatitis C virus [4] = assay: Antiviral activity against HCV1b by cell based replicon assay; type: functional, organism-based, Hepacivirus hominis; conditions: genotype 1b

SMILES	concentration at 4 h [1] [µM]	Ki [2] [nM]	Ki (Hepatitis C virus [3]) [nM]	IC50 (Hepatitis C virus [4]) [nM]
C=C[C@@H]1C[C@]1(NC(=O)[C@@H]1C[C@@H]2CN1C(=O)[C@H](C1CCCC1)NC(=O)OCC(C)(C)C/C=C/c1cc3c(cc(-c4ccccc4)nc3cc1OC)O2)C(=O)NS(=O)(=O)C1CC1	41	17	< 0.16	
C=C[C@@H]1C[C@]1(NC(=O)[C@@H]1C[C@@H]2CN1C(=O)[C@H](C(C)(C)C)NC(=O)OCCC/C=C/c1ccc3ccnc(c3c1)O2)C(=O)NS(=O)(=O)C1CC1		475	0.04	4.5
C=C[C@@H]1C[C@]1(NC(=O)[C@@H]1C[C@@H]2CN1C(=O)[C@H](C(C)C)NC(=O)N(C)CCCCCc1cc3c(cc(-c4ccccc4)nc3cc1OC)O2)C(=O)NS(=O)(=O)C1CC1	0.304	5.8	< 0.16	
